# Read-outs that look alike come from different tables or passages of the source.
# Target: T1, LmjIPCS (inositol phosphorylceramide synthase from L. major) (Leishmania major, UniProt E9AFX2)
# T1 sequence (E9AFX2 1-338): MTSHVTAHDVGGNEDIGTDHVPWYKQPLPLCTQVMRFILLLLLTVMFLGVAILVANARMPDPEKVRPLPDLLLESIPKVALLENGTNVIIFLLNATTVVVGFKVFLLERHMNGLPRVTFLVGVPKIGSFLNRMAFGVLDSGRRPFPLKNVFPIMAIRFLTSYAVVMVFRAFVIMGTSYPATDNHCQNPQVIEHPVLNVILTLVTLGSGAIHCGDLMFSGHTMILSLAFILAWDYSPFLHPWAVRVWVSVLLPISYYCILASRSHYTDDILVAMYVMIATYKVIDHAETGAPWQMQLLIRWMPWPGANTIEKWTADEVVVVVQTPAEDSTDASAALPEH
# Experiment: biochemical
# Type: biochemical
# Design: inhibition: dose or concentration left out as unconfirmed
# Details: for inhibition at 20000 µM: read-out: 20mM inhibition LmjIPCS; for inhibition: read-out: inhibition LmjIPCS
# [1] = NINDS set screen, single concentration printed as 20mM
SMILES,inhibition at 20000 µM [%],other results
C[C@@H]1C[C@H]2[C@@H]3C[C@H](F)C4=CC(=O)C=C[C@]4(C)[C@@]3(F)[C@@H](O)C[C@]2(C)[C@@]1(O)C(=O)COC(=O)C(C)(C)C [FLUMETHAZONE PIVALATE],,20mM inhibition LmjIPCS: 14%
CC1(C)O[C@@H]2C[C@H]3[C@@H]4C[C@H](F)C5=CC(=O)C=C[C@]5(C)[C@H]4[C@@H](O)C[C@]3(C)[C@]2(C(=O)CO)O1 [FLUNISOLIDE],-10,
CC(=O)OCC(=O)[C@@]12OC(C)(C)O[C@@H]1C[C@H]1[C@@H]3C[C@H](F)C4=CC(=O)C=C[C@]4(C)[C@@]3(F)[C@@H](O)C[C@@]12C [FLUOCINONIDE],6,
CC(=O)[C@@]1(O)CC[C@H]2[C@@H]3C[C@H](C)C4=CC(=O)C=C[C@]4(C)[C@@]3(F)[C@@H](O)C[C@@]21C [FLUOROMETHOLONE],3,
O=c1[nH]cc(F)c(=O)[nH]1 [FLUOROURACIL],,inhibition: 4.66%
CC1(C)O[C@@H]2C[C@H]3[C@@H]4C[C@H](F)C5=CC(=O)CC[C@]5(C)[C@H]4[C@@H](O)C[C@]3(C)[C@]2(C(=O)CO)O1 [FLURANDRENOLIDE],-15,
CC(C(=O)O)c1ccc(-c2ccccc2)c(F)c1 (stereo not shown) [FLURBIPROFEN],,inhibition: 4%
CC(C)C(=O)Nc1ccc([N+](=O)[O-])c(C(F)(F)F)c1 [FLUTAMIDE],-1.8,
Nc1nc(=O)c2nc(CNc3ccc(C(=O)N[C@@H](CCC(=O)O)C(=O)O)cc3)cnc2[nH]1 [FOLIC ACID],,inhibition: 5.56%
C[C@]12CCC(=O)C(O)=C1CC[C@@H]1[C@@H]2CC[C@]2(C)C(=O)CC[C@@H]12 [FORMESTANE],18,
O=C(O)P(=O)(O)O [FOSCARNET],,inhibition: 2%
C[C@@H]1O[C@@H]1P(=O)(O)O [FOSFOMYCIN],,inhibition: 16%
O=C(O)c1ccccc1OP(=O)(O)O [FOSFOSAL],,inhibition (NINDS set screen): 13%
O=C(O)c1cc2cc(Cc3cccnc3)ccc2o1 [FUREGRELATE],-16,
NS(=O)(=O)c1cc(C(=O)O)c(NCc2ccco2)cc1Cl [FUROSEMIDE],5,
CC(=O)O[C@H]1C[C@@]2(C)[C@@H](C[C@@H](O)[C@H]3[C@@]4(C)CC[C@@H](O)[C@@H](C)[C@@H]4CC[C@@]32C)/C1=C(\CCC=C(C)C)C(=O)O [FUSIDIC ACID],,inhibition: 5.47%
Oc1noc2c1CCNC2 [GABOXADOL],-24,
COc1ccc2c3c1O[C@H]1C[C@@H](O)C=C[C@@]31CCN(C)C2 [GALANTHAMINE],2.62,
CC[N+](CC)(CC)CCOc1cccc(OCC[N+](CC)(CC)CC)c1OCC[N+](CC)(CC)CC [GALLAMINE TRIETHIODIDE],-1.76,
CC(C)=CCC[C@]1(C)C=Cc2c(O)c3c(c(CC=C(C)C)c2O1)O[C@]12C(=C[C@@H]4C[C@H]1C(C)(C)O[C@@]2(C/C=C(/C)C(=O)O)C4=O)C3=O [GAMBOGIC ACID],,20mM inhibition LmjIPCS: 58%
COc1c(N2CCNC(C)C2)c(F)cc2c(=O)c(C(=O)O)cn(C3CC3)c12 (stereo not shown) [GATIFLOXACIN],,"inhibition (screening of NINDS set, sheet Screen 1): 2.29%"
CC(=O)O[C@@H]1C[C@H]2C(C)(C)C(=O)C=C[C@]2(C)[C@H]2CC[C@@]3(C)[C@H](c4ccoc4)OC(=O)[C@H]4O[C@]43[C@@]21C [GEDUNIN],,20mM inhibition LmjIPCS [1]: 48%
Cc1ccc(C)c(OCCCC(C)(C)C(=O)O)c1 [GEMFIBROZIL],-1.79,
CO/N=C1\CN(c2nc3c(cc2F)c(=O)c(C(=O)O)cn3C2CC2)CC1CN (stereo not shown) [GEMIFLOXACIN],25,
CN[C@@H]1[C@@H](O)[C@@H](O[C@@H]2[C@@H](O)[C@H](O[C@H]3O[C@H]([C@@H](C)O)[C@@H](O)[C@H](O)[C@H]3N)[C@@H](N)C[C@H]2N)OC[C@]1(C)O [GENETICIN],13,
CNC(C)C1CCC(N)C(OC2C(N)CC(N)C(OC3OCC(C)(O)C(NC)C3O)C2O)O1 (stereo not shown) [GENTAMICIN],,inhibition: -1%
CN(C)c1ccc(C(=C2C=CC(=[N+](C)C)C=C2)c2ccc(N(C)C)cc2)cc1 [GENTIAN VIOLET],,20mM inhibition LmjIPCS [1]: 64%
O=C(OCC(O)CO)c1ccccc1Nc1ccnc2cc(Cl)ccc12 (stereo not shown) [GLAFENINE],-16,

# Source: publication PMC7802075 (ACS Infectious Diseases, 2020)
